Test results: US20060281813A1, “Methods of treating hyperproliferative cell disorders” (priority 2003, published 2006)
Substitutions are numbered along the chain they refer to.

How the values were obtained:
[1] = tested on: non small cell lung cancer; assay: Example 2: patient with non small cell lung cancer; assay type: in vivo, human; settings: 75 mg per day with IRESSA 250 mg per day for two months
Procedure: A patient suffering from non small cell lung cancer was treated with IRESSA® (250 mg per day) for two months. The disease progressed during the treatment and thae patient was continued on IRESSA® (250 mg per day) with daily dosage of 4-oxo-retinol (75 mg per day) for two months. The disease became stable and the patient continued taking IRESSA® (250 mg per day) for 4 more months without 4-oxo-retinol with a stale disease.

monomeric mouse RARa = target: T1, monomeric mouse RARa (Mus musculus, UniProt P11416); settings: read-out: IC50, ability to displace all-trans RA; cited from earlier work
T1 sequence (P11416 1-462): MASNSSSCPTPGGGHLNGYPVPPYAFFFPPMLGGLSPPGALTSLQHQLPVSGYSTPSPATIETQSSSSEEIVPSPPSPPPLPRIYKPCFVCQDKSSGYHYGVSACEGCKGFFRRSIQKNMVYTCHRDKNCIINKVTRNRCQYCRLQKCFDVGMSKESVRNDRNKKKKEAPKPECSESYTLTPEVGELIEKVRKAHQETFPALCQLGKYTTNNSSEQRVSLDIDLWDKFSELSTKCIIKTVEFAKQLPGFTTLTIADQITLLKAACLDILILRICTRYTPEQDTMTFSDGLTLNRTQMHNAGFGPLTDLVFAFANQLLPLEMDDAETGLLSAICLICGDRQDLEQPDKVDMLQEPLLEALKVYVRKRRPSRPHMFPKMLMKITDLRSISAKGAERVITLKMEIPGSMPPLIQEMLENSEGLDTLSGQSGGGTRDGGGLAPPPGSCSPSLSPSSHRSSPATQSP

[2] = tested on: F9 embryonal mouse teratocarcinoma cells; settings: in F9 cells; cited from earlier work
human RARα = target: T2, human RARα (Homo sapiens, UniProt P10276); settings: cited from earlier work
T2 sequence (P10276 1-462): T1 sequence (P11416 1-462) with S43T, D150E, A169V, K347R, S427P, T431G, H453N, Q460H

ER+ or ER− tumor lines = settings: all the ER+ or ER− tumor lines examined; cited from earlier work
F9 cells = settings: similar to all-trans RA; cited from earlier work
[3] = target: T3, RARg ligand binding domain (Homo sapiens, UniProt P13631); settings: CV-1 cell transfectants, cited from earlier work
T3 construct: expressed in transfected cells; host or cells: CV-1 cells

[4] = tested on: breast cancer, prostate cancer or leukemia; assay: Example 4: patients with breast cancer, prostate cancer or leukemia; assay type: in vivo, human; settings: oral 100 mg/square meter with oral IRESSA
RARγ = target: T4, RARγ (Mus musculus, UniProt P18911); settings: read-out: IC50, ability to displace all-trans RA; cited from earlier work
T4 sequence (P18911 1-458): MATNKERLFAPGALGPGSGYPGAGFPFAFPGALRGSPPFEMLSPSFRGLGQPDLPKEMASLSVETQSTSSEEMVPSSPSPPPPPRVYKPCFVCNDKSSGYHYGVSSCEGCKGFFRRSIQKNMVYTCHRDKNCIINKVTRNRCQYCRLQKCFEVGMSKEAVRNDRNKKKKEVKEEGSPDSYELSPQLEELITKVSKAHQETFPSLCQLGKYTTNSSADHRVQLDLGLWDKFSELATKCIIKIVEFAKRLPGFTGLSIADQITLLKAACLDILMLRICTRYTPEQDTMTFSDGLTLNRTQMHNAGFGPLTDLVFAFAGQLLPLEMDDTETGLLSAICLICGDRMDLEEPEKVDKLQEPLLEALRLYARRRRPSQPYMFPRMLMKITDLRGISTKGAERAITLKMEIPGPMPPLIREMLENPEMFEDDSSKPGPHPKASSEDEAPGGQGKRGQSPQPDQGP

monomeric mouse RAR b = target: T5, monomeric mouse RAR b (Mus musculus, UniProt P22605); settings: read-out: IC50, ability to displace all-trans RA; cited from earlier work
T5 sequence (P22605 1-482): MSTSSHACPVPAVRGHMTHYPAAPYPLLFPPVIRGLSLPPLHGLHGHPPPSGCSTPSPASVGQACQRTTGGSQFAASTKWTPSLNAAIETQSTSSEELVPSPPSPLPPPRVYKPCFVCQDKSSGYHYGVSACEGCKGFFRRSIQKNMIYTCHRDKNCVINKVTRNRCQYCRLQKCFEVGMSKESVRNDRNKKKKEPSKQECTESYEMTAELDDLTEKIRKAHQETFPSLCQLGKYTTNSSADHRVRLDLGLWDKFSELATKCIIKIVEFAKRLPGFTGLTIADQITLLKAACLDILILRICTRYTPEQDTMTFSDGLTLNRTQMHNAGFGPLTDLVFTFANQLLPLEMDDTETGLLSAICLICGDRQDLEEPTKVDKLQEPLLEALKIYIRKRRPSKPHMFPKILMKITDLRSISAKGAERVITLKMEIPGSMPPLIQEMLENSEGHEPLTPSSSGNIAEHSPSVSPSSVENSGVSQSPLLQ

T3 sequence (P04386 1-147 partner limits assumed, species assumed, one chain of several): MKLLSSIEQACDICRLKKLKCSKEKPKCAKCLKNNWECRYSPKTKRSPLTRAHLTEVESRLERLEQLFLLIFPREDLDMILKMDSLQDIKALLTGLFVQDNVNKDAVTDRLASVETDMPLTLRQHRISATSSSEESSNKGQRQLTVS

Structure (SMILES): CC(C=CC1=C(C)C(=O)CCC1(C)C)=CC=CC(C)=CCO [4-oxo-retinol]
- disease course [1]: stable
- IC50 (monomeric mouse RARa): 330 nM
- half-life [2]: > 15 h
- RARα-mediated transactivation (human RARα): potently induced transactivation
- growth inhibition (ER+ or ER− tumor lines): growth inhibitory
- differentiation of F9 cells (F9 cells): induces differentiation
- activity on GAL4 chimeras by RAR ligand binding domain ([3]; chimera with ligand binding domain of RARg): highest activity
- RARg activation compared with all-trans RA [3]: greater ability to induce RARg activation than all-trans RA
- tumor burden versus IRESSA alone [4]: reduced tumor burden
- IC50 (RARγ): 3200 nM
- IC50 (monomeric mouse RAR b): 420 nM
